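Cells were grown in 96-well plates and exposed to each compound for 48 hours at five concentrations; endpoints were interpolated linearly between bracketing concentrations, or set to the highest concentration if not reached. Abbreviation: GI50, concentration required for 50% inhibition of growth.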 The source made the active and inactive calls. No stated cut-off is given here; in the data, active = GI50 up to about 1.1 µM and inactive = higher.

Holding throughout (assay): inhibition of tumour cell growth, NCI panel, 48 h
Experiment [1] deals with SNB-75.
Experiment [2] relates to SK-OV-3.
Experiment [3] relates to NCI-H522.
In experiment [4] the test system is OVCAR-5.
Experiment [5] concerns SK-MEL-5.
Experiment [6] relates to 786-0.
In experiment [7] the test system is RPMI-8226.
Experiment [8] relates to MOLT-4.
Experiment [9] has as its system DU-145.
In experiment [10] the test system is SF-268.
Experiment [11] relates to SW-620.
Experiment [12] has as its system UACC-62.
The subject of experiment [13] is EKVX.
The subject of experiment [14] is UACC-257.
Experiment [15] relates to SR.
For experiment [16], the system named is HCC 2998.
Experiment [17] deals with PC-3.
For experiment [18], the system named is HCT-15.
The test system of experiment [19] is SN12C.
The test system of experiment [20] is NCI-H226.

As to `CC(=O)OC[C@@H](OC(C)=O)[C@H](OC(C)=O)[C@@H]1OC(C)(C)O[C@@H]1C1SCCCS1`, the GI50 in experiment [1], in experiment [2], in experiment [3], in experiment [4], in experiment [5] and in experiment [6] was > 100 µM (inactive) in each case. In addition, the GI50 in experiment [7], in experiment [8], in experiment [9], in experiment [10], in [11] and in experiment [12] was > 100 µM (inactive) in each case. Moreover, the GI50 in experiment [13], in experiment [14], in experiment [15], in [16] and in experiment [17] was > 100 µM (inactive) in each case.

In the case of `Nc1nc(Cl)cc(OCC2(CO)CCCC2)n1`, the GI50 in experiment [1], in experiment [3], in experiment [4], in experiment [5], in experiment [6] and in experiment [7] was > 100 µM (inactive) in each case. Further, the GI50 in [8] is > 100 µM (inactive); in experiment [9], > 100 µM (inactive); in experiment [10], > 100 µM (inactive); in [11], > 100 µM (inactive); in experiment [18], over 100 µM; in experiment [19], > 100 µM (inactive). Further, the GI50 was 91.4 µM (inactive) in experiment [13]; > 100 µM (inactive) in experiment [14]; > 100 µM (inactive) in experiment [16]; > 100 µM (inactive) in [17]; > 100 µM (inactive) in experiment [20].

Consider `O=c1[nH]c(=S)[nH]cc1CN1CCOCC1`, for which the GI50 in experiment [1], in experiment [2], in experiment [3], in experiment [4], in experiment [5] and in experiment [6] was > 100 µM (inactive) each time. Besides, the GI50 in [7] is > 100 µM (inactive); in [8], > 100 µM (inactive); in experiment [9], > 100 µM (inactive); in experiment [10], > 100 µM (inactive); in [11], > 100 µM (inactive); in experiment [18], over 100 µM. For the same compound, the GI50 in experiment [12], in [19], in experiment [13], in experiment [14], in experiment [15] and in experiment [16] was > 100 µM (inactive) throughout. Besides, the GI50 in experiment [17] is > 100 µM (inactive).

For `O=S(=O)(O)c1ccc2c(/N=N\c3ccc(F)cc3)c(O)c(S(=O)(=O)O)cc2c1`, the GI50 in experiment [1], in [2], in [3], in experiment [4], in [5] and in [6] was > 100 µM (inactive) throughout. Moreover, the GI50 is > 100 µM (inactive) in [7]; > 100 µM (inactive) in [8]; > 100 µM (inactive) in experiment [9]; > 100 µM (inactive) in [10]; > 100 µM (inactive) in [11]; over 100 µM in experiment [18]. The GI50 in experiment [12], in experiment [19], in [13], in [14], in [15] and in [17] was > 100 µM (inactive) in each case.

`O=C1C(=Cc2ccc(O)cc2)N=C(c2ccccc2)N1n1c(-c2ccccc2)nc2ccccc2c1=O`: the GI50 is > 100 µM (inactive) in experiment [1]; > 100 µM (inactive) in experiment [2]; 50 µM (inactive) in experiment [3]; > 100 µM (inactive) in [5]; > 100 µM (inactive) in [6]; 46.1 µM (inactive) in [7]. Also, the GI50 is 78.7 µM (inactive) in experiment [8]; > 100 µM (inactive) in experiment [9]; > 100 µM (inactive) in experiment [10]; > 100 µM (inactive) in experiment [11]; 38.9 µM in [18]; 97.1 µM (inactive) in [12]. Besides, the GI50 in [19] is > 10 µM (inactive); in experiment [13] it was > 100 µM (inactive); in [14], > 100 µM (inactive); in experiment [16] it was > 100 µM (inactive); in experiment [17] it was 34.8 µM (inactive); in [20], > 100 µM (inactive).

For the compound `NC(Cc1ccc(S(=O)(=O)O)cc1)C(=O)NC(Cc1ccc(S(=O)(=O)O)cc1)C(=O)O` (configuration not stated), the GI50 in experiment [1], in [3], in experiment [4], in [5], in [6] and in [7] was > 100 µM (inactive) in each case. In addition, the GI50 is > 100 µM (inactive) in experiment [8]; > 100 µM (inactive) in experiment [9]; > 100 µM (inactive) in [10]; > 100 µM (inactive) in experiment [11]; over 100 µM in experiment [18]; > 100 µM (inactive) in experiment [12]. Besides, the GI50 in [19], in experiment [13], in experiment [14], in [16], in experiment [17] and in experiment [20] was > 100 µM (inactive) in each case.

Turning to `Cc1ccccc1[P+](C)(c1ccccc1C)c1ccccc1C`, the GI50 was 12.6 µM (inactive) in experiment [1]; 33.2 µM (inactive) in [2]; 5.24 µM (inactive) in [3]; 13.6 µM (inactive) in experiment [4]; 4.84 µM (inactive) in experiment [5]; 24.8 µM (inactive) in experiment [6]. Also, the GI50 in experiment [7] is 1.21 µM (inactive); in [9] it was 29.2 µM (inactive); in experiment [10], 34.8 µM (inactive); in [11] it was 13.6 µM (inactive); in experiment [18] it was 19.9 µM; in experiment [12] it was 5.79 µM (inactive). The GI50 is 14.7 µM (inactive) in experiment [19]; 5.07 µM (inactive) in experiment [13]; 2.58 µM (inactive) in experiment [14]; 2.77 µM (inactive) in [16]; 14.3 µM (inactive) in experiment [17]; 14.6 µM (inactive) in experiment [20].

In the case of `C#CCn1c(=O)c2cc(OC)c(OC)cc2n(CC#C)c1=O`, the GI50 in experiment [1], in experiment [2], in [3], in experiment [4], in experiment [5] and in [6] was > 10 µM (inactive) in each case. Further, the GI50 in [7] was > 10 µM (inactive); in experiment [8], > 10 µM (inactive); in experiment [9], > 10 µM (inactive); in [10], > 10 µM (inactive); in experiment [11], > 10 µM (inactive); in experiment [18] it was over 10 µM. Also, the GI50 in experiment [19], in [13], in [14], in experiment [16], in experiment [17] and in [20] was > 10 µM (inactive) throughout.

Consider `COC(=O)[C@@]12CC3CN(Cc4c1[nH]c1ccccc41)C2CC3=O`, for which the GI50 in experiment [1] is 74.8 µM (inactive); in [2], > 100 µM (inactive); in experiment [3] it was > 100 µM (inactive); in [4], > 100 µM (inactive); in experiment [6], > 100 µM (inactive); in [7] it was > 100 µM (inactive). The GI50 in experiment [8] was > 100 µM (inactive); in [9] it was > 100 µM (inactive); in experiment [10], > 100 µM (inactive); in [11], > 100 µM (inactive); in [18], over 100 µM; in experiment [12], > 100 µM (inactive). Besides, the GI50 in [19], in [13], in experiment [14], in [16], in experiment [17] and in experiment [20] was > 100 µM (inactive) each time.

Consider `CC(=O)/N=C1\NC(=O)/C(=C/c2ccccc2Cl)N1C`, for which the GI50 in experiment [1], in [2], in experiment [3], in experiment [4], in [5] and in [6] was > 100 µM (inactive) each time. For the same compound, the GI50 was > 100 µM (inactive) in [8]; > 100 µM (inactive) in [9]; > 100 µM (inactive) in experiment [10]; > 100 µM (inactive) in experiment [11]; 65.9 µM in [18]; > 100 µM (inactive) in experiment [12]. The GI50 in experiment [19] is > 100 µM (inactive); in experiment [13] it was 26.4 µM (inactive); in [14], > 100 µM (inactive); in [16], > 100 µM (inactive); in [17], > 100 µM (inactive); in experiment [20] it was > 100 µM (inactive).

Take `OCCc1ccsc1-c1sc(-c2cc(CCO)c(-c3sccc3CCO)s2)cc1CCO`: the GI50 in [2] is 17.5 µM (inactive); in experiment [3] it was 12.2 µM (inactive); in [4] it was 17.1 µM (inactive); in experiment [5], 15.6 µM (inactive); in experiment [6], 12 µM (inactive); in experiment [7] it was 5.05 µM (inactive). In addition, the GI50 was 7.89 µM (inactive) in [8]; 15.5 µM (inactive) in [9]; 5.42 µM (inactive) in [10]; 31.2 µM (inactive) in [11]; 12.4 µM in experiment [18]; 11.6 µM (inactive) in [12]. The GI50 in [19] was 21.3 µM (inactive); in experiment [13], 17.1 µM (inactive); in experiment [14], 17 µM (inactive); in experiment [15] it was 20.7 µM (inactive); in experiment [16], 12.5 µM (inactive); in experiment [17], 11.8 µM (inactive).

Source of the values: ChEMBL document CHEMBL1201862, “PubChem BioAssay data set” (2004).
